Source: the NIST ThermoML archive (doi:10.1021/je500917k)

Assay: xn = mol fraction of the nth substance listed
Conditions: 100 kPa, Liquid; for speed of sound: Frequency=2 MHz

CCN1CCCC1=O [1-ethyl-2-pyrrolidinone] + CNCCO
Conditions | mass density [kg/m3] | speed of sound [m/s] | viscosity [mPa·s]
293.15 K, x1 = 0.0905 | 947.11 | 1479.8 | 9.188
293.15 K, x1 = 0.1825 | 953.11 | 1478.5 | 6.79
293.15 K, x1 = 0.2767 | 958.92 | 1478.5 | 5.162
293.15 K, x1 = 0.3731 | 964.75 | 1480.1 | 4.095
293.15 K, x1 = 0.4713 | 970.4 | 1483.1 | 3.496
293.15 K, x1 = 0.5725 | 975.84 | 1486.9 | 2.951
293.15 K, x1 = 0.6756 | 981.28 | 1491.4 | 2.648
293.15 K, x1 = 0.7808 | 986.73 | 1497.9 | 2.358
293.15 K, x1 = 0.8888 | 992.12 | 1504.7 | 2.231
293.15 K, x1 = 1 | 997.71 | 1512.1 | 2.117
303.15 K, x1 = 0.0905 | 939.11 | 1447.2 | 6.239
303.15 K, x1 = 0.1825 | 944.94 | 1445.2 | 4.715
303.15 K, x1 = 0.2767 | 950.62 | 1444.1 | 3.747
303.15 K, x1 = 0.3731 | 956.31 | 1444.9 | 3.068
303.15 K, x1 = 0.4713 | 961.92 | 1447.3 | 2.666
303.15 K, x1 = 0.5725 | 967.33 | 1450.6 | 2.339
303.15 K, x1 = 0.6756 | 972.75 | 1454.6 | 2.125
303.15 K, x1 = 0.7808 | 978.18 | 1460.6 | 1.94
303.15 K, x1 = 0.8888 | 983.56 | 1467 | 1.83
303.15 K, x1 = 1 | 989.14 | 1474.2 | 1.771
313.15 K, x1 = 0.0905 | 931.05 | 1414.1 | 4.394
313.15 K, x1 = 0.1825 | 936.73 | 1411.3 | 3.488
313.15 K, x1 = 0.2767 | 942.28 | 1409.4 | 2.89
313.15 K, x1 = 0.3731 | 947.87 | 1409.5 | 2.409
313.15 K, x1 = 0.4713 | 953.42 | 1411.6 | 2.123
313.15 K, x1 = 0.5725 | 958.78 | 1414.3 | 1.914
313.15 K, x1 = 0.6756 | 964.1 | 1418 | 1.776
313.15 K, x1 = 0.7808 | 969.61 | 1423.5 | 1.639
313.15 K, x1 = 0.8888 | 974.99 | 1429.4 | 1.546
313.15 K, x1 = 1 | 980.56 | 1436 | 1.518
323.15 K, x1 = 0.0905 | 922.92 | 1381 | 3.293
323.15 K, x1 = 0.1825 | 928.44 | 1377.6 | 2.683
323.15 K, x1 = 0.2767 | 933.89 | 1375.1 | 2.267
323.15 K, x1 = 0.3731 | 939.38 | 1374.6 | 1.943
323.15 K, x1 = 0.4713 | 944.88 | 1376.1 | 1.747
323.15 K, x1 = 0.5725 | 950.21 | 1378.3 | 1.58
323.15 K, x1 = 0.6756 | 955.61 | 1381.7 | 1.478
323.15 K, x1 = 0.7808 | 961.03 | 1386.8 | 1.41
323.15 K, x1 = 0.8888 | 966.4 | 1392.3 | 1.331
323.15 K, x1 = 1 | 971.96 | 1398.5 | 1.299

CCNCCO [2-(ethylamino)ethanol] + CCN1CCCC1=O
Conditions | mass density [kg/m3] | speed of sound [m/s] | viscosity [mPa·s]
293.15 K, x2 = 0 | 917.79 | 1442.4 | 15.28
293.15 K, x2 = 0.111 | 925.54 | 1444.5 | 10.35
293.15 K, x2 = 0.2179 | 933.77 | 1448.8 | 7.447
293.15 K, x2 = 0.3242 | 941.8 | 1453.7 | 5.665
293.15 K, x2 = 0.4274 | 949.86 | 1459.7 | 4.571
293.15 K, x2 = 0.5359 | 958.36 | 1468 | 3.849
293.15 K, x2 = 0.6269 | 965.64 | 1473.3 | 3.126
293.15 K, x2 = 0.7225 | 973.71 | 1482 | 2.717
293.15 K, x2 = 0.8177 | 981.7 | 1491.1 | 2.458
293.15 K, x2 = 0.9095 | 989.6 | 1501 | 2.261
303.15 K, x2 = 0 | 909.82 | 1408.3 | 9.59
303.15 K, x2 = 0.111 | 917.42 | 1409.8 | 6.874
303.15 K, x2 = 0.2179 | 925.53 | 1413.7 | 5.212
303.15 K, x2 = 0.3242 | 933.46 | 1418.1 | 4.093
303.15 K, x2 = 0.4274 | 941.44 | 1423.5 | 3.257
303.15 K, x2 = 0.5359 | 949.89 | 1431.6 | 2.917
303.15 K, x2 = 0.6269 | 957.14 | 1436.5 | 2.458
303.15 K, x2 = 0.7225 | 965.19 | 1445 | 2.205
303.15 K, x2 = 0.8177 | 973.17 | 1453.7 | 2.013
303.15 K, x2 = 0.9095 | 981.06 | 1463.3 | 1.891
313.15 K, x2 = 0 | 901.79 | 1374.5 | 6.406
313.15 K, x2 = 0.111 | 909.24 | 1375.4 | 4.824
313.15 K, x2 = 0.2179 | 917.23 | 1378.8 | 3.79
313.15 K, x2 = 0.3242 | 925.07 | 1382.8 | 3.092
313.15 K, x2 = 0.4274 | 932.99 | 1387.9 | 2.609
313.15 K, x2 = 0.5359 | 941.38 | 1395.5 | 2.311
313.15 K, x2 = 0.6269 | 948.61 | 1400 | 1.979
313.15 K, x2 = 0.7225 | 956.65 | 1408.2 | 1.834
313.15 K, x2 = 0.8177 | 964.63 | 1416.7 | 1.684
313.15 K, x2 = 0.9095 | 972.5 | 1425.7 | 1.578
323.15 K, x2 = 0 | 893.68 | 1340.9 | 4.527
323.15 K, x2 = 0.111 | 900.98 | 1341.1 | 3.563
323.15 K, x2 = 0.2179 | 908.86 | 1344.1 | 2.873
323.15 K, x2 = 0.3242 | 916.63 | 1347.7 | 2.399
323.15 K, x2 = 0.4274 | 924.49 | 1352.5 | 2.053
323.15 K, x2 = 0.5359 | 932.84 | 1359.8 | 1.833
323.15 K, x2 = 0.6269 | 940.06 | 1364.2 | 1.664
323.15 K, x2 = 0.7225 | 948.09 | 1372 | 1.547
323.15 K, x2 = 0.8177 | 956.06 | 1380 | 1.435
323.15 K, x2 = 0.9095 | 963.93 | 1388.8 | 1.367
